# Results as given in US6627628B1, “Substituted 4-amino-2-aryl-cyclopenta[d]pyrimidines, their production and use and pharmaceutical preparations containing same” (Aventis Pharma Deutschland, GmbH, priority 1998, dated 2003).
row,melting point [°C],SMILES
1,130,"CCN(CC)c1nc(-c2ccc(C#N)cc2)nc2c1CCC2 [Example 71, 2-(4-Cyanophenyl)-4-diethylamino-6,7-dihydro-5H-cyclopenta[d]pyrimidine]"
2,74,"CCCN(CCC)c1nc(-c2ccc(OC)cc2)nc2c1CCC2 [Example 59, 2-(4-Methoxyphenyl)-4-dipropylamino-6,7-dihydro-5H-cyclopenta[d]pyrimidine]"
3,115,"COc1ccc(-c2nc3c(c(N(CCO)CCO)n2)CCC3)cc1OC [Example 68, 2-(3,4-Dimethoxyphenyl)-4-(di-(2-hydroxyethyl)amino)-6,7-dihydro-5H-cyclopenta[d]pyrimidine]"
4,152,"N#Cc1ccc(-c2nc3c(c(N4CCCCC4)n2)CCC3)cc1 [Example 72, 2-(4-Cyanophenyl)-4-piperidino-6,7-dihydro-5H-cyclopenta[d]pyrimidine]"
5,138,"COc1ccc(-c2nc3c(c(NC4CCCC4)n2)CCC3)cc1OC [Example 63, 2-(3,4-Dimethoxyphenyl)-4-cyclopentylamino-6,7-dihydro-5H-cyclopenta[d]-pyrimidine]"
6,70,"COc1ccc(-c2nc3c(c(NC4CCCCC4)n2)CCC3)cc1OC [Example 64, 2-(3,4-Dimethoxyphenyl)-4-cyclohexylamino-6,7-dihydro-5H-cyclopenta[d]-pyrimidine]"
7,119,"CCCCNc1nc(-c2ccc(OC)cc2)nc2c1CCC2 [Example 55, 2-(4-Methoxyphenyl)-4-butylamino-6,7-dihydro-5H-cyclopenta[d]pyrimidine]"
8,168,"N#Cc1ccc(-c2nc3c(c(NCc4ccccc4)n2)CCC3)cc1 [Example 70, 2-(4-Cyanophenyl)-4-benzylamino-6,7-dihydro-5H-cyclopenta[d]pyrimidine]"
9,138,"COc1ccc(-c2nc3c(c(NC4CCCCC4)n2)CCC3)cc1 [Example 57, 2-(4-Methoxyphenyl)-4-cyclohexylamino-6,7-dihydro-5H-cyclopenta[d]-pyrimidine]"
10,99,"COc1ccc(-c2nc3c(c(N4CCCCCC4)n2)CCC3)cc1 [Example 60, 2-(4-Methoxyphenyl)-4-hexamethyleneimino-6,7-dihydro-5H-cyclopenta[d]-pyrimidine]"
11,142,"COc1ccc(-c2nc3c(c(N4CC(C)OC(C)C4)n2)CCC3)cc1OC (stereo not shown) [Example 67, 2-(3,4-Dimethoxyphenyl)-4-(2,6-dimethylmorpholino)-6,7-dihydro-5H-cyclopenta[d]pyrimidine]"
12,145,"COc1ccc(-c2nc3c(c(NCCc4ccccc4Cl)n2)CCC3)cc1 [Example 58, 2-(4-Methoxyphenyl)-4-(2-(2-chlorophenyl)ethylamino)-6,7-dihydro-5H-cyclopenta[d]pyrimidine]"
13,107,"COCCCNc1nc(-c2ccc(OC)c(OC)c2)nc2c1CCC2 [Example 62, 2-(3,4-Dimethoxyphenyl)-4-(3-methoxypropylamino)-6,7-dihydro-5H-cyclopenta-[d]pyrimidine]"
14,154,"COc1ccc(-c2nc3c(c(NC4CCCC4)n2)CCC3)cc1 [Example 56, 2-(4-Methoxyphenyl)-4-cyclopentylamino-6,7-dihydro-5H-cyclopenta[d]-pyrimidine]"
15,247,"N#Cc1ccc(-c2nc3c(c(N4CCOCC4)n2)CCC3)cc1 [Example 73, 2-(4-Cyanophenyl)-4-morpholino-6,7-dihydro-5H-cyclopenta[d]pyrimidine]"
16,107,"CCCN(CCC)c1nc(-c2ccc(OC)c(OC)c2)nc2c1CCC2 [Example 66, 2-(3,4-Dimethoxyphenyl)-4-dipropylamino-6,7-dihydro-5H-cyclopenta[d]-pyrimidine]"
17,130,"COCCCNc1nc(-c2ccc(C#N)cc2)nc2c1CCC2 [Example 69, 2-(4-Cyanophenyl)-4-(3-methoxypropylamino)-6,7-dihydro-5H-cyclopenta[d]-pyrimidine]"
18,115,"CCCCNc1nc(-c2ccc(OC)c(OC)c2)nc2c1CCC2 [Example 65, 2-(3,4-Dimethoxyphenyl)-4-butylamino-6,7-dihydro-5H-cyclopenta[d]pyrimidine]"
19,219,"N#Cc1ccc(-c2nc3c(c(NCc4cccnc4)n2)CCC3)cc1 [Example 74, 2-(4-Cyanophenyl)-4-((3-pyridylmethyl)amino)-6,7-dihydro-5H-cyclopenta[d]-pyrimidine]"
20,192,"COc1ccc(-c2nc3c(c(N4CCOCC4)n2)CCC3)cc1 [Example 61, 2-(4-Methoxyphenyl)-4-morpholino-6,7-dihydro-5H-cyclopenta[d]pyrimidine]"

# Continued, molecule first:
row,SMILES,melting point [°C]
1,COc1cccc(CCNc2nc(-c3cccc(Cl)c3)nc3c2CCC3)c1.Cl,192
2,"Clc1cccc(-c2nc3c(c(NCc4cccnc4)n2)CCC3)c1 [Example 22, 2-(3-Chlorophenyl)-4-((3-pyridylmethyl)amino)-6,7-dihydro-5H-cyclopenta[d]-pyrimidine]",185
3,Cl.Cl.Clc1ccc(-c2nc3c(c(N(Cc4ccccc4)C4CCNCC4)n2)CCC3)cc1,275
4,"CC(C)CNc1nc(-c2ccc(Cl)cc2)nc2c1CCC2 [Example 29, 2-(4-Chlorophenyl)-4-isobutylamino-6,7-dihydro-5H-cyclopenta[d]pyrimidine]",121
5,"Cc1ccc(-c2nc3c(c(N4CCCC4)n2)CCC3)cc1 [Example 46, 2-(4-Methylphenyl)-4-pyrrolidino-6,7-dihydro-5H-cyclopenta[d]pyrimidine]",203
6,"Clc1ccc(-c2nc3c(c(NCc4cccnc4)n2)CCC3)cc1 [Example 19, 2-(4-Chlorophenyl)-4-((3-pyridylmethyl)amino)-6,7-dihydro-5H-cyclopenta[d]-pyrimidine]",209
7,"Cc1ccc(-c2nc3c(c(NCCO)n2)CCC3)cc1 [Example 39, 2-(4-Methylphenyl)-4-(2-hydroxyethylamino)-6,7-dihydro-5H-cyclopenta[d]-pyrimidine]",191
8,COc1cccc(CCNc2nc(-c3ccc(Cl)cc3)nc3c2CCC3)c1.Cl,230
9,"CC1(C)CC(Nc2nc(-c3cccc(Cl)c3)nc3c2CCC3)CC(C)(C)N1 [Example 31, 2-(3-Chlorophenyl)-4-(2,2,6,6-tetramethylpiperidin-4-ylamino)-6,7-dihydro-5H-cyclopenta[d]pyrimidine]",182
10,"CCCN(CCC)c1nc(-c2cc(Cl)cc(Cl)c2)nc2c1CCC2 [Example 52, 2-(3,5-Dichlorophenyl)-4-dipropylamino-6,7-dihydro-5H-cyclopenta[d]pyrimidine]",120
11,"Clc1cc(Cl)cc(-c2nc3c(c(N4CCCCC4)n2)CCC3)c1 [Example 53, 2-(3,5-Dichlorophenyl)-4-piperidino-6,7-dihydro-5H-cyclopenta[d]pyrimidine]",147
12,COCCNc1nc(-c2ccc(Cl)cc2)nc2c1CCC2.Cl,208
13,"COc1ccc(-c2nc3c(c(NCCCO)n2)CCC3)cc1 [Example 54, 2-(4-Methoxyphenyl)-4-(3-hydroxypropylamino)-6,7-dihydro-5H-cyclopenta[d]-pyrimidine]",165
14,"Clc1cccc(-c2nc3c(c(N4CCSCC4)n2)CCC3)c1 [Example 38, 2-(3-Chlorophenyl)-4-thiomorpholino-6,7-dihydro-5H-cyclopenta[d]pyrimidine]",134
15,"Clc1cccc(-c2nc3c(c(N4CCOCC4)n2)CCC3)c1 [Example 20, 2-(3-Chlorophenyl)-4-morpholino-6,7-dihydro-5H-cyclopenta[d]pyrimidine]",132
16,"Clc1ccc(-c2nc3c(c(N4CCSCC4)n2)CCC3)cc1 [Example 24, 2-(4-Chlorophenyl)-4-thiomorpholino-6,7-dihydro-5H-cyclopenta[d]pyrimidine]",159
17,"Cc1ccc(-c2nc3c(c(N4CCSCC4)n2)CCC3)cc1 [Example 47, 2-(4-Methylphenyl)-4-thiomorpholino-6,7-dihydro-5H-cyclopenta[d]pyrimidine]",160
18,"Clc1cccc(-c2nc3c(c(N4CCCC4)n2)CCC3)c1 [Example 36, 2-(3-Chlorophenyl)-4-pyrrolidino-6,7-dihydro-5H-cyclopenta[d]pyrimidine]",150
19,"OCCNc1nc(-c2ccc(Cl)cc2)nc2c1CCC2 [Example 18, 2-(4-Chlorophenyl)-4-(2-hydroxyethylamino)-6,7-dihydro-5H-cyclopenta[d]-pyrimidine]",160
20,"OCCNc1nc(-c2cccc(Cl)c2)nc2c1CCC2 [Example 21, 2-(3-Chlorophenyl)-4-(2-hydroxyethylamino)-6,7-dihydro-5H-cyclopenta[d]-pyrimidine]",150
